Reference: patent US12077503B2, “Substituted cyclic amides and their use as herbicides” (FMC CORPORATION, priority 2015, dated 2024)

How the values were obtained:
Type in all cases: in vivo
[1] = test system: barnyardgrass (Echinochloa crus-galli); experiment: Test A preemergence; conditions: Echinochloa crus-galli, pre-emergence, 240 h, 0 to 100 scale where 0 is no effect and 100 is complete control, read-out: Barnyardgrass plant response rating
Procedure, shortened: (§1)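 Seeded soil received test chemicals as a preemergence directed spray, and seedlings at one to two leaves, 2–10 cm tall, received them postemergence, in a non-phytotoxic, surfactant-containing solvent mixture. Pots were held in a greenhouse for approximately 10 d, then rated for injury from 0, no effect, to 100, complete control.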

[2] = test system: ragweed (common ragweed, Ambrosia elatior); experiment: Test A preemergence; conditions: Ambrosia artemisiifolia, pre-emergence, 240 h, 0 to 100 scale where 0 is no effect and 100 is complete control, read-out: Ragweed plant response rating
Procedure, shortened: as §1

[3] = test system: ryegrass, Italian (Italian ryegrass, Lolium multiflorum); experiment: Test A preemergence; conditions: Lolium multiflorum, pre-emergence, 240 h, 0 to 100 scale where 0 is no effect and 100 is complete control, read-out: Ryegrass, Italian plant response rating
Procedure, shortened: as §1

Kochia (Kochia scoparia) [4] = experiment: Test A preemergence; conditions: Bassia scoparia, pre-emergence, 240 h, 0 to 100 scale where 0 is no effect and 100 is complete control, read-out: Kochia plant response rating
Procedure, shortened: as §1

[5] = test system: giant foxtail (Setaria faberii); experiment: Test A preemergence; conditions: Setaria faberi, pre-emergence, 240 h, 0 to 100 scale where 0 is no effect and 100 is complete control, read-out: Foxtail, Giant plant response rating
Procedure, shortened: as §1

[6] = test system: pigweed (Amaranthus retroflexus); experiment: Test A preemergence; conditions: Amaranthus retroflexus, pre-emergence, 240 h, 0 to 100 scale where 0 is no effect and 100 is complete control, read-out: Pigweed plant response rating
rice (Oryra sativa) = experiment: Test B flooded paddy test; conditions: Oryza sativa, 250 g ai/ha, Flood; 0 to 100 scale where 0 is no effect and 100 is complete control; read-out: Rice plant response rating
Procedure, shortened: (§2)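 Plants at 2-leaf stage flooded to 3 cm above soil, with compounds applied directly to paddy water and that depth maintained. Plants kept in greenhouse 13–15 d. Visual rating versus controls on a 0 (no effect) to 100 (complete control) scale.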

[7] = test system: sedge, umbrella (small-flower umbrella sedge, Cyperus difformis); experiment: Test B flooded paddy test; conditions: Cyperus difformis, 250 g ai/ha, Flood; 0 to 100 scale where 0 is no effect and 100 is complete control; read-out: Sedge, Umbrella plant response rating
Procedure, shortened: as §2

[8] = test system: barnyardgrass (Echinochloa crus-galli); experiment: Test B flooded paddy test; conditions: Echinochloa crus-galli, 250 g ai/ha, Flood; 0 to 100 scale where 0 is no effect and 100 is complete control; read-out: Barnyardgrass plant response rating
Procedure, shortened: as §2

[9] = test system: ducksalad (Heteranthera limosa); experiment: Test B flooded paddy test; conditions: Heteranthera limosa, 250 g ai/ha, Flood; 0 to 100 scale where 0 is no effect and 100 is complete control; read-out: Ducksalad plant response rating
Procedure, shortened: as §2

[10] = test system: barnyardgrass (Echinochloa crus-galli); experiment: Test A postemergence; conditions: Echinochloa crus-galli, post-emergence, 240 h, read-out: Barnyardgrass plant response rating (0 to 100 scale)
Procedure, shortened: as §1

[11] = test system: ragweed (common ragweed, Ambrosia elatior); experiment: Test A postemergence; conditions: Ambrosia artemisiifolia, post-emergence, 240 h, read-out: Ragweed plant response rating (0 to 100 scale)
Procedure, shortened: as §1

[12] = test system: ryegrass, Italian (Italian ryegrass, Lolium multiflorum); experiment: Test A postemergence; conditions: Lolium multiflorum, post-emergence, 240 h, read-out: Ryegrass, Italian plant response rating (0 to 100 scale)
Procedure, shortened: as §1

corn (Zea mays) = experiment: Test A postemergence; conditions: Zea mays, post-emergence, 240 h, read-out: Corn plant response rating (0 to 100 scale)
Procedure, shortened: as §1

[13] = test system: blackgrass (Alopecurus myosuroides); experiment: Test A postemergence; conditions: Alopecurus myosuroides, post-emergence, 240 h, read-out: Blackgrass plant response rating (0 to 100 scale)
Procedure, shortened: as §1

[14] = test system: Galium (catchweed bedstraw, Galium aparine); experiment: Test A postemergence; conditions: Galium, post-emergence, 240 h, read-out: Galium plant response rating (0 to 100 scale)
Procedure, shortened: as §1

Kochia (Kochia scoparia) [15] = experiment: Test A postemergence; conditions: Bassia scoparia, post-emergence, 240 h, read-out: Kochia plant response rating (0 to 100 scale)
Procedure, shortened: as §1

[16] = test system: wheat (Triticum aestivum); experiment: Test A postemergence; conditions: Triticum aestivum, post-emergence, 240 h, read-out: Wheat plant response rating (0 to 100 scale)
Procedure, shortened: as §1

[17] = test system: giant foxtail (Setaria faberii); experiment: Test A postemergence; conditions: Setaria faberi, post-emergence, 240 h, read-out: Foxtail, Giant plant response rating (0 to 100 scale)
Procedure, shortened: as §1

[18] = test system: pigweed (Amaranthus retroflexus); experiment: Test A postemergence; conditions: Amaranthus retroflexus, post-emergence, 240 h, read-out: Pigweed plant response rating (0 to 100 scale)
Procedure, shortened: as §1

[19] = 125 g ai/ha, preemergence, visual injury rating, approximately 10 d
[20] = 125 g ai/ha, postemergence, visual injury vs untreated controls after approx. 10 d, 0 = no effect, 100 = complete control
[21] = Postemergence, 31 g ai/ha, 0 is no effect, 100 is complete control

In the case of `CN1C[C@H](c2ccc(C#N)c(F)c2)[C@@H](C(=O)Nc2ccccc2F)C1=O` [Compound 1190], the pest or weed control at 31 g/ha ([1]; 31 g ai/ha, Preemergence) is reported as 50%, the pest or weed control at 125 g/ha [1, 19] is reported as 90% and the pest or weed control at 31 g/ha ([2]; 31 g ai/ha, Preemergence) is reported as 0%. It also gave a pest or weed control at 125 g/ha [2, 19] of 0%, a pest or weed control at 31 g/ha ([3]; 31 g ai/ha, Preemergence) of 0% and a pest or weed control at 125 g/ha [3, 19] of 0%. It also gave a pest or weed control at 31 g/ha (Kochia (Kochia scoparia) [4]; 31 g ai/ha, Preemergence) of 0%, a pest or weed control at 125 g/ha (Kochia (Kochia scoparia) [4]; [19]) of 0% and a pest or weed control at 31 g/ha ([5]; 31 g ai/ha, Preemergence) of 60%. For the same compound, the pest or weed control at 125 g/ha [5, 19] was 90%, the pest or weed control at 31 g/ha ([6]; 31 g ai/ha, Preemergence) was 0% and the pest or weed control at 125 g/ha [6, 19] was 0%. The pest or weed control at 250 g/ha (rice (Oryra sativa)) was 40%, the pest or weed control at 250 g/ha [7] was 0% and the pest or weed control at 250 g/ha [8] was 55%. For the same compound, the pest or weed control at 250 g/ha [9] was 90%, the pest or weed control at 125 g/ha [10, 20] was 60% and the pest or weed control at 31 g/ha [10, 21] was 0%. It also gave a pest or weed control at 125 g/ha [11, 20] of 0%, a pest or weed control at 31 g/ha [11, 21] of 0% and a pest or weed control at 125 g/ha [12, 20] of 0%. For the same compound, the pest or weed control at 31 g/ha [12, 21] was 0%, the plant injury at 125 g/ha (corn (Zea mays); [20]) was 0% and the plant injury at 31 g/ha (corn (Zea mays); [21]) was 0%. For the same compound, the pest or weed control at 125 g/ha [13, 20] was 0%, the pest or weed control at 31 g/ha [13, 21] was 0% and the pest or weed control at 125 g/ha [14, 20] was 20%. The pest or weed control at 31 g/ha [14, 21] was 0%, the pest or weed control at 125 g/ha (Kochia (Kochia scoparia) [15]; [20]) was 0% and the pest or weed control at 31 g/ha (Kochia (Kochia scoparia) [15]; [21]) was 0%. It also gave a plant injury at 125 g/ha [16, 20] of 0%, a plant injury at 31 g/ha [16, 21] of 0% and a pest or weed control at 125 g/ha [17, 20] of 20%. For the same compound, the pest or weed control at 31 g/ha [17, 21] was 0%, the pest or weed control at 125 g/ha [18, 20] was 0% and the pest or weed control at 31 g/ha [18, 21] was 0%.
